Measurements taken from publication PMC12090182, “Repurposing of the RIPK1-Selective Benzo[1,4]oxazepin-4-one Scaffold for the Development of a Type III LIMK1/2 Inhibitor” (ACS Chemical Biology, 2025).

Legend:
Assay in all cases: scanMAX KINOMEscan (Eurofins)
Format in all cases: binding
ACVR1B = ACVR1B (Homo sapiens, UniProt P36896); conditions: 1000 nM, read-out: Percent Control
From the text: (§1) Supplement cb5c00097_si_002.xlsx, sheet "Table S6 (Eurofins Selectivity)" | column: Percent Control

AKT3 = AKT3 (Homo sapiens, UniProt Q9Y243); conditions: read-out: Percent Control
Chain of AKT3 (Q9Y243 whole entry): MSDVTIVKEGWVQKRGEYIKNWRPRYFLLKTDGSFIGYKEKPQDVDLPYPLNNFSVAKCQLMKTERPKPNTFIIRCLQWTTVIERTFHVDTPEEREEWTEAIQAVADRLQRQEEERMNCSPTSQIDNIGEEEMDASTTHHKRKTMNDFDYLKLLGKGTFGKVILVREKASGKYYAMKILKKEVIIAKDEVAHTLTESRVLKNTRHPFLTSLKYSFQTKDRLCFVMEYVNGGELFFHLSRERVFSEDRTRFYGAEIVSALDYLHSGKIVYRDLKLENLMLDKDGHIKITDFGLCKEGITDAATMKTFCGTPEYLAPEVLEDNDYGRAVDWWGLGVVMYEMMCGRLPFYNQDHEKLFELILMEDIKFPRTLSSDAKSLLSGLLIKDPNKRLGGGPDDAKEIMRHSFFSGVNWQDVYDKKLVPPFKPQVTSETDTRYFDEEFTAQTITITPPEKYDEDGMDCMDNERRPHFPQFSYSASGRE
From the text: as §1

ARK5 = ARK5 (Homo sapiens, UniProt O60285); conditions: read-out: Percent Control
Chain of ARK5 (O60285 whole entry): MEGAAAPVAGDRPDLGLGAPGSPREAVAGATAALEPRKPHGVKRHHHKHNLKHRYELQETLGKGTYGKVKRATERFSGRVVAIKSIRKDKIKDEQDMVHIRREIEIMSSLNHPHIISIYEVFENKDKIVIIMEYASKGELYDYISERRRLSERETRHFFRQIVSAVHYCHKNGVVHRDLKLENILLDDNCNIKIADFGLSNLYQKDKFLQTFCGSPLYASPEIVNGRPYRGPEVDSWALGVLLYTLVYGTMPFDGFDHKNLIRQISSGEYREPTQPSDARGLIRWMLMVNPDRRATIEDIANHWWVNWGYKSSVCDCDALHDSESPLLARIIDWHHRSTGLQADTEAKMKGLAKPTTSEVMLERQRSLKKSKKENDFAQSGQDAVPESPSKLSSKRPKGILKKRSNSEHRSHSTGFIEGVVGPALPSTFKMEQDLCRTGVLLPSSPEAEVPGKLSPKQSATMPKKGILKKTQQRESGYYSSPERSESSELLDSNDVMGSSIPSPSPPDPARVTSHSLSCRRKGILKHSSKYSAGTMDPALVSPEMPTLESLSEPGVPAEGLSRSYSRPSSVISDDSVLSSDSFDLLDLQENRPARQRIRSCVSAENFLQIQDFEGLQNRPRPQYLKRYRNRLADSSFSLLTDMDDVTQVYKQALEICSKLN
From the text: as §1

AURKB = AURKB (Homo sapiens, UniProt Q96GD4); conditions: read-out: Percent Control
Chain of AURKB (Q96GD4 whole entry): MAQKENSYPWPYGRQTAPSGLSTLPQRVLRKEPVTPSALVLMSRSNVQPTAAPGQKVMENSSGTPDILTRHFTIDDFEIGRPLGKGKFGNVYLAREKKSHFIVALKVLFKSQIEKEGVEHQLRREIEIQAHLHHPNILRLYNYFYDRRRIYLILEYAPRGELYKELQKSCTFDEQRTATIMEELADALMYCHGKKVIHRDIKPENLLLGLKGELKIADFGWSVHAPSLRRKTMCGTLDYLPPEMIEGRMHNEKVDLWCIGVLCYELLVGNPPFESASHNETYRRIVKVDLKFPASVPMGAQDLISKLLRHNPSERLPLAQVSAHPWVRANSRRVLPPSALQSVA
From the text: as §1

CAMK2G = CAMK2G (Homo sapiens, UniProt Q13555); conditions: 1000 nM, read-out: Percent Control
From the text: as §1

CDKL1 = CDKL1 (Homo sapiens, UniProt Q00532); conditions: read-out: Percent Control
Chain of CDKL1 (Q00532 whole entry): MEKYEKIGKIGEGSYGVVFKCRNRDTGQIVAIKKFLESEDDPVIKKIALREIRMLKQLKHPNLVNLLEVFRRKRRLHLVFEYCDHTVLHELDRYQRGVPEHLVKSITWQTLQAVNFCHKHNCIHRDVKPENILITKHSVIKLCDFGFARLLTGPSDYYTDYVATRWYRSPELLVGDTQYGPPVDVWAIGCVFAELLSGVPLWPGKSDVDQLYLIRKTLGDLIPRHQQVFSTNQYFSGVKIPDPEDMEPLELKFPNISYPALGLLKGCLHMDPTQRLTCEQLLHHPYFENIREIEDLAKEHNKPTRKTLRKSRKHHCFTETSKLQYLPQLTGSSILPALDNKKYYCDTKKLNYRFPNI
From the text: as §1

CSF1R-autoinhibited = CSF1R-autoinhibited (Homo sapiens, UniProt P07333); conditions: 1000 nM, read-out: Percent Control
From the text: as §1

CSNK1G3 = CSNK1G3 (Homo sapiens, UniProt Q9Y6M4); conditions: read-out: Percent Control
From the text: as §1

DDR1 = DDR1 (Homo sapiens, UniProt Q08345); conditions: read-out: Percent Control
Chain of DDR1 (Q08345 19-913): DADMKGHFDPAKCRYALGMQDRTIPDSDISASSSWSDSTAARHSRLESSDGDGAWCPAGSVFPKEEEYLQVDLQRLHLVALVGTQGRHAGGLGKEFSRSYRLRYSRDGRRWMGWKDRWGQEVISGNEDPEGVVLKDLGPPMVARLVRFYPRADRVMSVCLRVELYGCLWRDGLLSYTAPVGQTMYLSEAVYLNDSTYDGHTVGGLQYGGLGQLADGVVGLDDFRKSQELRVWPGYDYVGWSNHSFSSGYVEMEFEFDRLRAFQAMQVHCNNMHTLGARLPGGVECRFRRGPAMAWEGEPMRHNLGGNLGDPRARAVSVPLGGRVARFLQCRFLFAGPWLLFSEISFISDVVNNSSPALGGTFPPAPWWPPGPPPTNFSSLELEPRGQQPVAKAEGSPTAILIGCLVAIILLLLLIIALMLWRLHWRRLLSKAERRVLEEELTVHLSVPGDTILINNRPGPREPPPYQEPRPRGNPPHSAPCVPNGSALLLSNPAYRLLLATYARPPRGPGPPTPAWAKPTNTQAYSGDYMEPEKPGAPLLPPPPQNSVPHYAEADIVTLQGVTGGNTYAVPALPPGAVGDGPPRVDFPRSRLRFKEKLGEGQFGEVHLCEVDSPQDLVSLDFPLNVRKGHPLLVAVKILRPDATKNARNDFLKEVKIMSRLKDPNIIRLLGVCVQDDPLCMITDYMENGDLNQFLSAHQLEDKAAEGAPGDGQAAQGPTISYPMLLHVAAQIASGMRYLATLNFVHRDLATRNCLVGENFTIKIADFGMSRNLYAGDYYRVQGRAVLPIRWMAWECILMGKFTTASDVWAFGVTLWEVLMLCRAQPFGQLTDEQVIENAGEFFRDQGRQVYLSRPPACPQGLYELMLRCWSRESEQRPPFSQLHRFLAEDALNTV
From the text: as §1

DMPK = DMPK (Homo sapiens, UniProt Q09013); conditions: read-out: Percent Control
Chain of DMPK (Q09013 whole entry): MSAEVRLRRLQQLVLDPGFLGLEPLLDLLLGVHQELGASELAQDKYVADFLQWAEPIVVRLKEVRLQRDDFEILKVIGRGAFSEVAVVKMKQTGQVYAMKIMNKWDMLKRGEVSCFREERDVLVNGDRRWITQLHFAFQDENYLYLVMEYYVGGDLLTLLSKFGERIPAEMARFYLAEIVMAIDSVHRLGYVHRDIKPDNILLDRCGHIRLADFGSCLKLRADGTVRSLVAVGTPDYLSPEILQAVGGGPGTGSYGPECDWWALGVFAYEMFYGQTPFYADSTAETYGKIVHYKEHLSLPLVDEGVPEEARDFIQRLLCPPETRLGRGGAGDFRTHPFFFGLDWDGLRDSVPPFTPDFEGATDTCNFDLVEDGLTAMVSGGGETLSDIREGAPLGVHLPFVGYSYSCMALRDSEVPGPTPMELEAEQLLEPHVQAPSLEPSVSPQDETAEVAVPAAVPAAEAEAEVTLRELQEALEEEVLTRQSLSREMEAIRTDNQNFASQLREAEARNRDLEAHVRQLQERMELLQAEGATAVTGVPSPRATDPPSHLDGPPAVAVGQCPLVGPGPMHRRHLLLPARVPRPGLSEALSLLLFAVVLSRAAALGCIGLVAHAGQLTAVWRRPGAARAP
From the text: as §1

DMPK2 = DMPK2 (Homo sapiens, UniProt Q6DT37); conditions: read-out: Percent Control
From the text: as §1

EPHA3 = EPHA3 (Homo sapiens, UniProt P29320); conditions: read-out: Percent Control
Chain of EPHA3 (P29320 21-983): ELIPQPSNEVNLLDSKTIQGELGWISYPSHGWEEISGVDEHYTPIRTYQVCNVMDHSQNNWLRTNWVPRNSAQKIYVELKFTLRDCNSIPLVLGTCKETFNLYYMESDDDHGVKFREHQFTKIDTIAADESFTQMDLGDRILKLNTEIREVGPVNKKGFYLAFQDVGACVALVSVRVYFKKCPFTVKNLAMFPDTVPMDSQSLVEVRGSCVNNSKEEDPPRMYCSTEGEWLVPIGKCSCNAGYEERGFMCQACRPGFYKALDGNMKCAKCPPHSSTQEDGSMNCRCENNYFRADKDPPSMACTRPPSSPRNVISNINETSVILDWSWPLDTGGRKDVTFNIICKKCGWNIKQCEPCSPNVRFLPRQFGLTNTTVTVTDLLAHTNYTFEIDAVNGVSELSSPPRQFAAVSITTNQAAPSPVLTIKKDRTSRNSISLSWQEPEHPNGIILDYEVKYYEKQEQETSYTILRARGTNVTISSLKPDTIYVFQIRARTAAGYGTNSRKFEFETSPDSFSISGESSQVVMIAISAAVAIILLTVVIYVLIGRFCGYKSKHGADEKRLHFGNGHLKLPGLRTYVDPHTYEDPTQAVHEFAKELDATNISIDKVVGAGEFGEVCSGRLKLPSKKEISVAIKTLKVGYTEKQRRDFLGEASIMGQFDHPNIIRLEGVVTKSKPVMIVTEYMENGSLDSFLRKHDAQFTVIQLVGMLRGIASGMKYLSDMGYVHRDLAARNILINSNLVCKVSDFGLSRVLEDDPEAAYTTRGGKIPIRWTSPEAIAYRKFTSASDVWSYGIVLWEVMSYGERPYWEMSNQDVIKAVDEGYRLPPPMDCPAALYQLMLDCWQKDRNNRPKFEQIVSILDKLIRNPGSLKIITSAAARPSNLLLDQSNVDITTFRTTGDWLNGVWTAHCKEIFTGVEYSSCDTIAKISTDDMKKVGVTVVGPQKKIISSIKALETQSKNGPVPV
From the text: as §1

EPHB2 = EPHB2 (Homo sapiens, UniProt P29323); conditions: 1000 nM, read-out: Percent Control
From the text: as §1

ERBB3 = ERBB3 (Homo sapiens, UniProt P21860); conditions: 1000 nM, read-out: Percent Control
From the text: as §1

ERK4 = ERK4 (Homo sapiens, UniProt P31152); conditions: 1000 nM, read-out: Percent Control
From the text: as §1

GRK1 = GRK1 (Homo sapiens, UniProt Q15835); conditions: read-out: Percent Control
From the text: as §1

GRK2 = GRK2 (Homo sapiens, UniProt P25098); conditions: read-out: Percent Control
Chain of GRK2 (P25098 whole entry): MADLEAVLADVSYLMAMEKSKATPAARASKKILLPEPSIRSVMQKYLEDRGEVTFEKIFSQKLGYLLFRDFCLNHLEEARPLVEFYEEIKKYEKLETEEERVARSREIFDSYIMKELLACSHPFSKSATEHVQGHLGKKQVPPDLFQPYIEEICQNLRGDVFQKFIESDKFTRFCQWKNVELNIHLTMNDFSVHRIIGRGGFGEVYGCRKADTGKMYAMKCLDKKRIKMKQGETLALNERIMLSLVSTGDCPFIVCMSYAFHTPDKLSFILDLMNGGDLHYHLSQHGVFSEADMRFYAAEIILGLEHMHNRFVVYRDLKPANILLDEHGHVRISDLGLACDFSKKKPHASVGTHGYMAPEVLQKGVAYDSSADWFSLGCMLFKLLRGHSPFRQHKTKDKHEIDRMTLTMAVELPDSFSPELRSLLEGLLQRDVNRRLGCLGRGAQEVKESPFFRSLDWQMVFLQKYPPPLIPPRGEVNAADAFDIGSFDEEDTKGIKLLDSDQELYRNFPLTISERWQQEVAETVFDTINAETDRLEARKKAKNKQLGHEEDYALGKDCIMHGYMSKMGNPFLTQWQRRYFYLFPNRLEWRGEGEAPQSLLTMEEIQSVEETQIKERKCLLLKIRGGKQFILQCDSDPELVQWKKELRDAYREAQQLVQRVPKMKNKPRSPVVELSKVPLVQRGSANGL
From the text: as §1

[1] = target: JAK1(JH2domain-pseudokinase) (Homo sapiens, UniProt P23458); conditions: 1000 nM, read-out: Percent Control
From the text: as §1

MARK2 = MARK2 (Homo sapiens, UniProt Q7KZI7); conditions: 1000 nM, read-out: Percent Control
From the text: as §1

MEK1 = MEK1 (Homo sapiens, UniProt Q02750); conditions: compound concentration 100 nM; Entrez MAP2K1; read-out: Percent Control
From the text: as §1

MEK4 = MEK4 (Homo sapiens, UniProt P45985); conditions: compound concentration 100 nM; Entrez MAP2K4; read-out: Percent Control
From the text: as §1

MST1R = MST1R (Homo sapiens, UniProt Q04912); conditions: 1000 nM, read-out: Percent Control
From the text: as §1

PCTK2 = PCTK2 (Homo sapiens, UniProt Q00537); conditions: 1000 nM, read-out: Percent Control
From the text: as §1

PDPK1 = PDPK1 (Homo sapiens, UniProt O15530); conditions: 1000 nM, read-out: Percent Control
From the text: as §1

PIK3CA = PIK3CA (Homo sapiens, UniProt P42336); conditions: 1000 nM, read-out: Percent Control
From the text: as §1

PIM1 = PIM1 (Homo sapiens, UniProt P11309); conditions: 1000 nM, read-out: Percent Control
From the text: as §1

PKN2 = PKN2 (Homo sapiens, UniProt Q16513); conditions: compound concentration 100 nM; Entrez PKN2; read-out: Percent Control
From the text: as §1

PLK3 = PLK3 (Homo sapiens, UniProt Q9H4B4); conditions: compound concentration 100 nM; Entrez PLK3; read-out: Percent Control
From the text: as §1

RIPK2 = RIPK2 (Homo sapiens, UniProt O43353); conditions: 1000 nM, read-out: Percent Control
From the text: as §1

ROS1 = ROS1 (Homo sapiens, UniProt P08922); conditions: 1000 nM, read-out: Percent Control
From the text: as §1

SRC = SRC (Homo sapiens, UniProt P12931); conditions: compound concentration 100 nM; Entrez SRC; read-out: Percent Control
From the text: as §1

[2] = target: TYK2(JH1domain-catalytic) (Homo sapiens, UniProt P29597); conditions: 1000 nM, read-out: Percent Control
From the text: as §1

ULK1 = ULK1 (Homo sapiens, UniProt O75385); conditions: compound concentration 100 nM; Entrez ULK1; read-out: Percent Control
From the text: as §1

WEE2 = WEE2 (Homo sapiens, UniProt P0C1S8); conditions: 1000 nM, read-out: Percent Control
From the text: as §1

WNK3 = WNK3 (Homo sapiens, UniProt Q9BYP7); conditions: 1000 nM, read-out: Percent Control
From the text: as §1

YANK1 = YANK1 (Homo sapiens, UniProt Q8WU08); conditions: 1000 nM, read-out: Percent Control
From the text: as §1

Compound `CN1C(=O)[C@@H](N2CCc3c(nn(Cc4ccccc4)c3C(N)=O)C2=O)COc2cc(Cl)ccc21` [Compound 10, (S)-2-benzyl-6-(8-chloro-5-methyl-4-oxo-2,3,4,5-tetrahydrobenzo[b][1,4]oxazepin-3-yl)-7-oxo-4,5,6,7-tetrahydro-2H-pyrazolo[3,4-c]pyridine-3-carboxamide] has a remaining binding at 1 µM (ACVR1B) of 86%, a remaining binding at 1 µM (AKT3; 1000 nM) of 100% and a remaining binding at 0.1 µM (AKT3; compound concentration 100 nM, Entrez AKT3) of 100%. It also gave a remaining binding at 1 µM (ARK5; 1000 nM) of 99%, a remaining binding at 0.1 µM (ARK5; compound concentration 100 nM, Entrez NUAK1) of 86% and a remaining binding at 1 µM (AURKB; 1000 nM) of 100%. For the same compound, the remaining binding at 0.1 µM (AURKB; compound concentration 100 nM, Entrez AURKB) was 100%, the remaining binding at 1 µM (CAMK2G) was 84% and the remaining binding at 1 µM (CDKL1; 1000 nM) was 99%. The remaining binding at 0.1 µM (CDKL1; compound concentration 100 nM, Entrez CDKL1) was 96%, the remaining binding at 1 µM (CSF1R-autoinhibited) was 74% and the remaining binding at 1 µM (CSNK1G3; 1000 nM) was 100%. For the same compound, the remaining binding at 0.1 µM (CSNK1G3; compound concentration 100 nM, Entrez CSNK1G3) was 98%, the remaining binding at 1 µM (DDR1; 1000 nM) was 100% and the remaining binding at 0.1 µM (DDR1; compound concentration 100 nM, Entrez DDR1) was 77%. For the same compound, the remaining binding at 1 µM (DMPK; 1000 nM) was 100%, the remaining binding at 0.1 µM (DMPK; compound concentration 100 nM, Entrez DMPK) was 80% and the remaining binding at 1 µM (DMPK2; 1000 nM) was 100%. It also gave a remaining binding at 0.1 µM (DMPK2; compound concentration 100 nM, Entrez CDC42BPG) of 92%, a remaining binding at 1 µM (EPHA3; 1000 nM) of 100% and a remaining binding at 0.1 µM (EPHA3; compound concentration 100 nM, Entrez EPHA3) of 77%. For the same compound, the remaining binding at 1 µM (EPHB2) was 81%, the remaining binding at 1 µM (ERBB3) was 85% and the remaining binding at 1 µM (ERK4) was 92%. It also gave a remaining binding at 1 µM (GRK1; 1000 nM) of 100%, a remaining binding at 0.1 µM (GRK1; compound concentration 100 nM, Entrez GRK1) of 100% and a remaining binding at 1 µM (GRK2; 1000 nM) of 99%. The remaining binding at 0.1 µM (GRK2; compound concentration 100 nM, Entrez ADRBK1) was 91%, the remaining binding at 1 µM [1] was 94% and the remaining binding at 1 µM (MARK2) was 81%. For the same compound, the remaining binding at 0.1 µM (MEK1) was 91%, the remaining binding at 0.1 µM (MEK4) was 100% and the remaining binding at 1 µM (MST1R) was 91%. It also gave a remaining binding at 1 µM (PCTK2) of 90%, a remaining binding at 1 µM (PDPK1) of 91% and a remaining binding at 1 µM (PIK3CA) of 92%. For the same compound, the remaining binding at 1 µM (PIM1) was 78%, the remaining binding at 0.1 µM (PKN2) was 90% and the remaining binding at 0.1 µM (PLK3) was 86%. It also gave a remaining binding at 1 µM (RIPK2) of 80%, a remaining binding at 1 µM (ROS1) of 88% and a remaining binding at 0.1 µM (SRC) of 85%. It also gave a remaining binding at 1 µM [2] of 74%, a remaining binding at 0.1 µM (ULK1) of 100% and a remaining binding at 1 µM (WEE2) of 82%. For the same compound, the remaining binding at 1 µM (WNK3) was 69% and the remaining binding at 1 µM (YANK1) was 90%.
